In patent US7365049B2, “Afamin-containing compositions and methods of use” (Vitateg Biotechnology GmbH, priority 2001, dated 2008):
Entries after “also recorded” stand apart in the source; their conditions may differ.

T1: Afamin (Homo sapiens, UniProt P43652)
T1 sequence (P43652 22-599): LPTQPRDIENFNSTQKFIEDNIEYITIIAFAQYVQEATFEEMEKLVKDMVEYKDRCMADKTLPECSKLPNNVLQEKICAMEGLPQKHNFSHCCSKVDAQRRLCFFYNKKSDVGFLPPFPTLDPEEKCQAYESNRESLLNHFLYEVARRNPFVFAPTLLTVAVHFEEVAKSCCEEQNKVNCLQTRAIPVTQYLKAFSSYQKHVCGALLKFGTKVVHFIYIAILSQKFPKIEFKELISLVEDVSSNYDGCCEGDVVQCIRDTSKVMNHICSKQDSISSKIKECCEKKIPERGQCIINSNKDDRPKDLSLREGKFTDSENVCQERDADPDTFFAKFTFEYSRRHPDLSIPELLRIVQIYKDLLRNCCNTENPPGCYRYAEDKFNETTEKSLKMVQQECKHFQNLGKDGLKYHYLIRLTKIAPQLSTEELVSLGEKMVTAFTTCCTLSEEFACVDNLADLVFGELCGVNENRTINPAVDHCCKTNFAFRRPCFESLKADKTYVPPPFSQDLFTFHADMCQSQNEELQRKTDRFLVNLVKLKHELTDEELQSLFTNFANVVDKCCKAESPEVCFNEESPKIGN

B1: Afamin: 87 kDa protein which belongs to the albumin group; cloned and sequenced, also available in recombinant form (protein, UniProt P43652 22-599, looked up)
Afamin: T1 sequence (P43652 22-599)

Legend:
[1] = test system: isolated cortical neurons of chicken embryos; experiment: Low serum assay (2% serum), MTT viability of isolated cortical neurons; type: cell-based; conditions: partial serum withdrawal to 2%, FIG. 2a
Procedure: (§1) The neuroprotective effect of Afamin was examined by assaying isolated cortical neurons of chicken embryos. The effect of Afamin was tested in a low-serum assay and in two lesion assays, namely in a β-amyloid and a H2O2-lesion assay.
(§2) After the low serum assay or the lesion assay, the MTT assay is used to check the viability of neuronal cells (MTT=3-(4,5-dimethylthiazol-2-yl)-2,5-[…]). This is a suitable model which is extremely reproducible. The test also allows for assaying a large number of samples, and dose-dependent differences in the activity of a substance can be evaluated.
(§3) The neuronal viability of cells in vitro can be determined by means of this […] MTT test. The MTT assay is based on the metabolic reduction of MTT, a substance of yellow color, to dark-blue formazane crystals by mitochondrial dehydrogenases (e.g. succinate dehydrogenase). The crystals are dissolved, and the spectrometric absorption is measured at a suitable wave length.
(§4) In detail, isolated cortical neurons of 8- (lesion assays) or 9- (low serum assay) day-old chicken embryos (White Leghorn or Lohman Brown Hybrid strain) were used.
(§5) The neurons were prepared by breaking ethanoltreated eggs and putting the embryos into a plastic dish. […]
(§6) At the end of each experiment, the viability of the cultures was tested by means of the MTT assay with a plate reader at 570 nm.

[2] = test system: isolated cortical neurons of chicken embryos; experiment: H2O2-lesion assay, MTT viability of isolated cortical neurons; type: cell-based; conditions: 100 μM H2O2 for 24 h, FIG. 2b
Procedure: After the low serum assay or the lesion assay, the MTT assay is used to check the viability of neuronal cells (MTT=3-(4,5-dimethylthiazol-2-yl)-2,5-diphenyltriazolium bromide).
The neuronal viability of cells in vitro can be determined by means of this calorimetric MTT test. The MTT assay is based on the metabolic reduction of MTT, a substance of yellow color, to dark-blue formazane crystals by mitochondrial dehydrogenases (e.g. succinate dehydrogenase). The crystals are dissolved, and the spectrometric absorption is measured at a suitable wave length.
The neurons were prepared by breaking ethanoltreated eggs and putting the embryos into a plastic dish. After decapitation, the hemispheres were removed and collected. Loose tissue and meningial membranes were removed, and the hemispheres were mechanically dissociated.
80 μl cell suspension containing 6×10^5 cells/ml nutrient medium were added to each well of the microtiter plate which already contained 80 μl of medium with or without the substances. The plates were kept at 37° C., 95% humidity and 5% CO2 without a change of media (up to 8 DIV).
The low serum medium contains 100 ml of DEMEM with 1 g of glucose/l, 2% fetal calf serum, 0.01% Gentamycin and 2 mM L-glutamine. The nutrient medium for the lesion assays contains 100 ml of DMEM with 4.5 g of glucose/l, 5% fetal calf serum, 0.01% gentamycin and 2 mM L-glutamine.
At DIV 8, the cells were treated with 20 μM of pre-aggregated β-amyloid peptide (Aβ25-35; Sigma) for 72 hours, or with 100 μM H2O2 for 24 h.

[3] = test system: isolated cortical neurons of chicken embryos; experiment: β-amyloid lesion assay, MTT viability of isolated cortical neurons; type: cell-based; conditions: 20 μM pre-aggregated β-amyloid peptide (Aβ25-35) for 72 hours, FIG. 2c
Procedure: as §1, §2, §3, §4, §5, §6

Afamin = target: T1, Afamin; experiment: Scatchard-plot analysis of the binding of vitamin E to Afamin; conditions: FIG. 3
[4] = test system: glutamine synthetase (GS); experiment: 3-NP-induced reduction of glutamine synthetase (GS) activity in brain spheroids; type: cell-based; conditions: 5-day treatment with 3-NP (0.5 and 5 mM), Afamin 0.3 and 3 μg/ml without vitamin E, FIG. 1
From the text: Because of the mechanistic and pathological similarities between 3-NP lesions and Hungington's Disease (HD), 3-NP has been proposed as an alternative HD-model. Malonate and 3-NP are inhibitors of the succinate dehydrogenase which produce an energy loss and lesions which are similar to those observed in HD. Systemic administration of 3-NP causes a progressive locomotory deterioration which corresponds to that of HD.
After the extraction of brain spheroids and a one-week culturing, D,L-alpha-tocopherol (0.1 mM) were added to the medium. Two weeks old spheroids were plated in a plate having six wells. Shortly after the exposure, the medium was replaced by 2 ml of fresh medium. The spheroids were exposed to 3-NP (0.5 and 5 mM, pH adjusted to 7 to 8), or to the protectors vitamin E (0.1 mM), glutathione (1 mM), DTT (0.25 mM), L-NAME (N(G)-nitro-L-[…]-methylester) (0.1 mM), Afamin (without vitamin E (0.3 and 3 μg/ml) or combinations of 3-NP with the protectors for 5 days. After 2 days, freshly prepared 3-NP and protectors were added to the medium (Mathews et al., J. Neurosci, 18(1) (1998), 156-163); Borlongan et al., Neurosci Biohav. Res. 21(3) (1997), 289-293).
The results are illustrated in FIG. 1. […] As mentioned before, this system with 3NP constitutes a recognized model for excitotoxicity and serves as a model for Huntington's Disease.

Molecule | reduction of apoptosis / neuronal cell death in low serum medium [1] | reduction of damage / neuronal cell death by H2O2 [2] | reduction of damage / neuronal cell death by β-amyloid peptide [3] | theoretical maximum loading of an Afamin molecule (Afamin) | protection of glutamine synthetase activity against inactivation by 3NP [4]
Cc1c(C)c2c(c(C)c1O)CCC(C)(CCCC(C)CCCC(C)CCCC(C)C)O2 [vitamin E, D,L-alpha-tocopherol, reference compound] | capable of reducing the apoptosis | capable of reducing | capable of reducing | 18 molecules of vitamin E | 
B1 | protects against neuronal cell death; also recorded: capable of reducing the apoptosis | protects against neuronal cell death; also recorded: capable of reducing | protects against neuronal cell death; also recorded: capable of reducing |  | by far the highest effect of all the tested substances
